{"source": "patent US10293004B2", "about": "“Butyrate-producing bacterium and use thereof” (KABUSHIKI KAISHA YAKULT HONSHA, priority 2014, dated 2019)", "key": {"mouse C57BL/6J": {"tested_on": "mouse C57BL/6J", "test": "Multiple oral dose test of YIT 12355 to mouse given indigestible saccharide", "assay_type": "in vivo", "details": "for Total cell count: DAPI counting method; for Cell count, A. hadrus: quantitative PCR; for Occupancy: cell count of YIT 12355/total cell count ×100; for Detected count: mice with A. hadrus detected / mice in group", "method": "Mice were acclimatized and raised with F2 feed (manufactured by Funabashi Farm Co., Ltd.) for 1 week and then divided into 6 groups such that the average body weight was almost equal among these groups. Then, a control diet (Table 7) was administered thereto for 1 week and replaced with purified feed containing an indigestible material, which was then administered thereto for 2 weeks. A live cell suspension of YIT 12355 was orally administered twice a week a total of 4 times using a probe. At the final day of the test, each mouse was dissected, and the cecal and colonic contents were recovered and examined for an organic acid concentration. Also, the cell count of YIT 12355 in the intestinal tract contents was measured by quantitative PCR, while change in the whole intestinal flora was examined by use of PCR-DGGE (denaturing gradient gel electrophoresis). • Animal used: mouse C57BL/6J (4 weeks old; CLEA Japan, Inc.) • Test period: 3 weeks • Indigestible saccharide used: lactitol and maltitol • Dose of indigestible saccharide: 5% (w/w) • Administered bacterial strain: YIT 12355 • Dose of bacterium: live cell dose: 3.9 to 6.9×10^8 cfu/mouse (administration of a suspension in physiological saline using a probe). Total cell count including dead cells: […] cfu/mouse • Group configuration: 6 groups (5 mice/group) At the 2nd week of administration of the test feed, each mouse was anesthetized with diethyl ether and euthanized by cervical dislocation. After abdominal section, cecal tissues and colonic tissues were excised to recover their contents. The cecal and colonic contents were diluted 10-fold with PBS and subjected to DNA extraction. DNA was extracted by the bead-phenol method from the 10-fold diluted solution of the intestinal tract contents. Specifically, 0.3 g of glass beads (diameter: 0.1 mm), 300 μL of a Tris-SDS solution (a mixed solution of 250 mL of 200 mM Tris-HCl, 80 mM EDTA, pH 9.0, and 50 mL of 10% SDS) and 500 μL of TE saturated phenol were added to 200 μL of the diluted solution of the intestinal tract contents, and the mixture was vigorously shaken for 30 seconds using FASTPREP FP120 cell disruptive equipment (power level: 5.0). After centrifugation at 15,000 rpm for 5 minutes, 400 μL of a phenol/chloroform/isoamyl alcohol (25:24:1) solution was added to 400 μL of the supernatant, and the mixture was shaken for 45 seconds using FASTPREP FP120 cell disruptive equipment (power level: 4.0). After centrifugation at 15,000 rpm for 5 minutes, 25 μL of 3 M sodium acetate (pH 5.4) and 250 μL of isopropanol were added to 250 μL of the supernatant and mixed therewith. After centrifugation at 15,000 rpm for 5 minutes, the supernatant was removed, and 500 μL of 70% ethanol was added thereto, followed by centrifugation again at 15,000 rpm for 5 minutes. The supernatant was removed, and the pellets were dried and dissolved in 1.0 mL of a TE buffer. The obtained DNA solution was diluted 10-fold with purified water to prepare a template DNA solution. For quantitative PCR, 7500 Real-Time PCR System (manufactured by Life Technologies Corp.) was used. The total volume of the reaction solution was set to 20 μL, and SYBR Premix Ex Taq II (Takara Bio Inc.) containing 1.0 μM each of primers, and the template DNA solution were mixed and then subjected to quantitative PCR. The reaction conditions involved heating at 95° C. for 2 minutes, followed by 40 repetitive cycles each involving reactions at 95° C. for 20 seconds, 55° C. for 20 seconds and 72° C. for 50 seconds, and subsequent reaction at 72° C. for 3 minutes. For subsequent Tm value analysis, after reaction at 60° C. for 1 minute, the temperature was elevated at a temperature gradient of 0.2° C./sec to 95° C. during which the fluorescence of SYBR Green I was measured to measure the dissociation temperature (Tm) of the double strand of the amplification product. […]"}, "[1]": {"test": "Biochemical properties: enzymatic activity (API-ZYM, Rapid ID32A API, API KENKI 20A)", "parameters": "key: +: positive reaction; −: negative reaction; +^w: weak reaction", "description": "Commercially available API-ZYM, Rapid ID32A API, and API KENKI 20A (SYSMEX bioMerieux Co., Ltd.) were used in the testing of biochemical properties of various bacterial strains. The testing method followed the product manuals."}, "[2]": {"test": "Amount of butyrate produced by culture in PYA medium supplemented with acetate and lactate", "details": "PYA medium (33 mM sodium acetate) with 40 mM sodium lactate, 37° C. 24 hours, minus PYA without lactate", "method": "Each bacterial solution cultured in a PYGA liquid medium under the same conditions as those described in the preceding paragraph 1) was inoculated at 1% to a PYA medium containing 33 mM sodium acetate and further supplemented with 40 mM sodium lactate, followed by anaerobic culture at 37° C. for 24 hours. After the completion of the culture, the organic acid concentration in the culture solution was analyzed by ion-exclusion HPLC. The analysis conditions were the same as those described in the preceding paragraph 1). The amount of butyrate produced was calculated according to (Expression 2). Amount of butyrate produced=(Amount of butyrate produced by culture for 24 hours in a PYA medium supplemented with 40 mM sodium lactate)−(Amount of butyrate produced by culture for 24 hours in a PYA medium without 40 mM sodium lactate) (Expression 2)"}}, "data": [{"substance": "A. hadrus (Eubacterium hadrum) YIT 12355 (NITE BP-01832)", "values": [{"measurement": "Total cell count", "setting": "mouse C57BL/6J; Cecal contents", "result": "10.9 ± 0.1", "unit": "log10 cells/g contents"}, {"measurement": "Cell count, A. hadrus", "setting": "mouse C57BL/6J; Cecal contents, multiple oral dose", "result": "7.0 ± 1.1", "unit": "log10 cells/g contents"}, {"measurement": "Occupancy", "setting": "mouse C57BL/6J; Cecal contents", "result": "0.1 ± 0.1", "unit": "%"}, {"measurement": "Detected count", "setting": "mouse C57BL/6J; Cecal contents", "result": "(4/5)"}, {"measurement": "Total cell count", "setting": "mouse C57BL/6J; Colonic contents", "result": "11.0 ± 0.0", "unit": "log10 cells/g contents"}, {"measurement": "Cell count, A. hadrus", "setting": "mouse C57BL/6J; Colonic contents, ND: <lower quantification limit 6.0 log10 (cells/g contents)", "result": "7.2 ± 1.1", "unit": "log10 cells/g contents"}, {"measurement": "Occupancy", "setting": "mouse C57BL/6J; Colonic contents", "result": "0.1 ± 0.1", "unit": "%"}, {"measurement": "Detected count", "setting": "mouse C57BL/6J; Colonic contents", "result": "(4/5)"}, {"measurement": "cell count of A. hadrus in the intestine", "setting": "mouse C57BL/6J; summary in words of Table 10", "result": "largely changes neither"}, {"measurement": "occupancy of A. hadrus in the intestine", "setting": "mouse C57BL/6J; summary in words of Table 10", "result": "largely changes neither"}, {"measurement": "Acid phosphatase", "setting": "[1]", "result": "+"}, {"measurement": "Alkaline phosphatase", "setting": "[1]", "result": "+"}, {"measurement": "Esterase (C4)", "setting": "[1]", "result": "+"}, {"measurement": "Naphthol-AS-B1-phosphohydrolase", "setting": "[1]", "result": "+"}, {"measurement": "α-Glucosidase", "setting": "[1]", "result": "+^w"}, {"measurement": "β-Galactosidase", "setting": "[1]", "result": "+"}, {"measurement": "β-Galactosidase-6-phosphate", "setting": "[1]", "result": "−"}, {"measurement": "Amount of butyrate produced", "setting": "[2]", "result": 19.9, "unit": "mmol/L"}]}]}
